{"source": "patent US8329617B2", "about": "“Compositions and methods for synergistic manipulation of plant and insect defenses” (Plant Bioscience Limited, priority 2007, dated 2012)", "key": {"Aphis gossypii": {"tested_on": "Aphis gossypii", "assay": "A. gossypii protein on cotton plants treated with propyl gallate and cis-jasmone", "type": "in vivo", "settings": "five cotton plants, 3 adult apterous aphids per plant, 7 days"}, "aphid (M. persicae)": {"tested_on": "aphid (M. persicae)", "assay": "Bioassay: M. persicae protein on potato, pepper and black mustard plants treated with BABA and/or PBO", "type": "in vivo, Myzus persicae", "settings": "3 adult apterous aphids per plant, 3 mM BABA root drench, PBO E spray, 7 days", "procedure": "In all bioassay experiments the control plants were sprayed with deionised water. Initially seven treatments were used (Table 1b) to test all chemical variables. […] Analysis of protein in each treatment was conducted using Bradford Reagent: the data were analysed using the computer programme ‘GraFit’ (Erithacus software, Berkeley). To calculate the calibration curve a single logarithmic curve was used with regression analysis taking the values of the treatment wells (averages of the three readings taken: technical replicates). Laboratory tests were undertaken to compare effects of combined and single treatments of PBO and BABA on control of aphid (M. persicae) on potato, pepper, and black mustard and whitefly (B. tabaci) on cotton and tomato. All tests included untreated and blank (water) controls, and both single and combined applications of PBO and BABA. […] To investigate developmental/fecundity effects of BABA+/−PBO E (see Table 1) on Myzus persicae when applied to plants, adults were added to the plants and then using Bradford reagent, the amount of aphid protein present on the plants 7 days after treatment was measured. Esterase levels were also tested after the same interval to check for the possible induction of metabolic enzymes when using BABA. Aphids were brushed from all plants and each leaf checked individually to ensure none remained. The aphid mass for each treatment was weighed before total protein was assessed (total from all five plants in the treatment)."}, "Myzus persicae, US1L": {"tested_on": "Myzus persicae, US1L", "assay": "Bioassay: M. persicae protein on four pepper plants treated with cis-jasmone and PBO (1, 5 or 10 adults per plant)", "type": "in vivo", "settings": "for Av. Total Insect Protein μg: Bioassay, M. persicae (US1L), average of weeks 1 to 3; for μg (Av) Total Protein (M. persicae): four pepper plants, 7 days", "procedure": "(§1) In all bioassay experiments the control plants were sprayed with deionised water. Initially seven treatments were used (Table 1) to test all chemical variables. All treatments were applied hydraulically with a spray simulator after which the plants were separated according to treatment (with cis-jasmone controls being separated) and left for 2 hours prior to insect application.\nAnalysis of protein in each treatment was conducted using Bradford Reagent: the data were analysed using the computer programme ‘GraFit’ (Erithacus software, Berkeley). To calculate the calibration curve a single logarithmic curve was used with regression analysis taking the values of the treatment wells (averages of the three readings taken: technical replicates). […]\nTo investigate developmental/fecundity effects of cis-jasmone+/−PBO E on Myzus persicae when applied to sweet peppers, one adult was added to the plants. Aphids were brushed from all plants and each leaf checked individually to ensure none remained. The aphid mass for each treatment was assessed for total protein (total from all four plants in the treatment) using Bradford reagent. The amount of aphid protein present on the plants 7 days after treatment was measured.\n(§2) Myzus persicae was applied to sweet peppers at the rate of five adults were added per plant. Aphids were brushed from all plants and each leaf checked individually to ensure none remained. The aphid mass for each treatment was assessed for total protein (total from all four plants in the treatment) using Bradford reagent. The amount of aphid protein present on the plants 7 days after treatment was measured (for further information see Example 3).\nas §2, with “persicae were” for “persicae was”, “of ten” for “of five”, “adults” for “adults were added”"}, "B. tabaci": {"tested_on": "B. tabaci", "assay": "B. tabaci pupae protein on cotton plants treated with PBO and/or microencapsulated cis-jasmone", "type": "in vivo, Bemisia tabaci", "settings": "for Protein WF (Av): five cotton plants per treatment, 5 adult female whiteflies per plant, ~16 days", "procedure": "(§3) A new method for the investigation of the development of whitefly to the pupal stage on tomatoes and cotton was used. […] These were checked for protein after ˜16 days using Bradford reagent.\n(§4) Adults were added to the plant 2 h after treatment, and removed after 24 h. The eggs laid were then left for 16-18 days until they reached the pupal stage. The total pupal protein on the plant was tested using the Bradford reagent."}, "Bemisia tabaci, GUA MIX": {"tested_on": "Bemisia tabaci, GUA MIX", "assay": "Bioassay: B. tabaci pupae protein on one tomato plant treated with cis-jasmone and PBO", "type": "in vivo", "settings": "for μg (Av) Total Protein (B. tabaci pupae): one tomato plant, ten adult whiteflies, ~16 days", "procedure": "as §1\nAnalysis of protein in each treatment was conducted using Bradford Reagent: the data were analysed using the computer programme ‘GraFit’ (Erithacus software, Berkeley). To calculate the calibration curve a single logarithmic curve was used with regression analysis taking the values of the treatment wells (averages of the three readings taken: technical replicates).\nas §3, §4"}, "whitefly (B. tabaci)": {"tested_on": "whitefly (B. tabaci)", "assay": "Bioassay: B. tabaci pupae protein on cotton and tomato plants treated with BABA and/or PBO", "type": "in vivo, Bemisia tabaci", "settings": "3 mM BABA root drench, PBO E spray", "procedure": "In all bioassay experiments the control plants were sprayed with deionised water. Initially seven treatments were used (Table 1b) to test all chemical variables. […] Analysis of protein in each treatment was conducted using Bradford Reagent: the data were analysed using the computer programme ‘GraFit’ (Erithacus software, Berkeley). To calculate the calibration curve a single logarithmic curve was used with regression analysis taking the values of the treatment wells (averages of the three readings taken: technical replicates). Laboratory tests were undertaken to compare effects of combined and single treatments of PBO and BABA on control of aphid (M. persicae) on potato, pepper, and black mustard and whitefly (B. tabaci) on cotton and tomato. All tests included untreated and blank (water) controls, and both single and combined applications of PBO and BABA. […] Adults were added to the plant 2 days after treatment, and removed after 24 h. The eggs laid were then left for 16-18 days until they reached the pupal stage. The total pupal protein on the plant was tested using the Bradford reagent."}}}
{"smiles": "CCCCOCCOCCOCc1cc2c(cc1CCC)OCO2", "note": "[PBO, 2-(2-butoxyethoxy)ethyl 6-propylpiperonyl ether]", "values": [{"measurement": "Protein A (Av)", "setting": "Aphis gossypii; week 1", "value": 20.05, "unit": "µg"}, {"measurement": "Protein A (Av)", "setting": "Aphis gossypii; week 2", "value": 15.1, "unit": "µg"}, {"measurement": "Protein A (Av)", "setting": "Aphis gossypii; week 3", "value": 16.3, "unit": "µg"}, {"measurement": "Protein A (Av)", "setting": "aphid (M. persicae); five black mustard plants, week 1", "value": 19.30, "unit": "µg"}, {"measurement": "Protein A (Av)", "setting": "aphid (M. persicae); five black mustard plants, week 2", "value": 18.90, "unit": "µg"}, {"measurement": "Protein A (Av)", "setting": "aphid (M. persicae); five black mustard plants, week 3", "value": 18.00, "unit": "µg"}, {"measurement": "Protein A (Av)", "setting": "aphid (M. persicae); five pepper plants, week 1", "value": 22.10, "unit": "µg"}, {"measurement": "Protein A (Av)", "setting": "aphid (M. persicae); five pepper plants, week 2", "value": 21.60, "unit": "µg"}, {"measurement": "Protein A (Av)", "setting": "aphid (M. persicae); five pepper plants, week 3", "value": 23.50, "unit": "µg"}, {"measurement": "Protein A (Av)", "setting": "aphid (M. persicae); five potato plants, week 1", "value": 17.60, "unit": "µg"}, {"measurement": "Protein A (Av)", "setting": "aphid (M. persicae); five potato plants, week 2", "value": 22.30, "unit": "µg"}, {"measurement": "Protein A (Av)", "setting": "aphid (M. persicae); five potato plants, week 3", "value": 19.20, "unit": "µg"}, {"measurement": "Av. Total Insect Protein μg", "setting": "Myzus persicae, US1L; 1 adult/plant", "value": 10.710, "unit": "µg"}, {"measurement": "Av. Total Insect Protein μg", "setting": "Myzus persicae, US1L; 5 adults/plant", "value": 21.500, "unit": "µg"}, {"measurement": "Av. Total Insect Protein μg", "setting": "Myzus persicae, US1L; 10 adults/plant", "value": 35.200, "unit": "µg"}, {"measurement": "effect of addition of PBO to cis-jasmone on reduction of insect protein (in words)", "setting": "Myzus persicae, US1L; M. persicae on pepper, five adults per plant", "value": "potentiates the effect of cis-jasmone"}, {"measurement": "reduction in total aphid protein (in words)", "setting": "Myzus persicae, US1L; M. persicae on pepper, small scale assays, 10, 5 or 1 adult aphid per plant", "value": "no significant reduction"}, {"measurement": "μg (Av) Total Protein (M. persicae)", "setting": "Myzus persicae, US1L; five adult apterous aphids per plant, week 1", "value": 23.60, "unit": "µg"}, {"measurement": "μg (Av) Total Protein (M. persicae)", "setting": "Myzus persicae, US1L; five adult apterous aphids per plant, week 2", "value": 17.29, "unit": "µg"}, {"measurement": "μg (Av) Total Protein (M. persicae)", "setting": "Myzus persicae, US1L; five adult apterous aphids per plant, week 3", "value": 23.60, "unit": "µg"}, {"measurement": "μg (Av) Total Protein (M. persicae)", "setting": "Myzus persicae, US1L; one adult apterous aphid per plant, week 1", "value": 13.64, "unit": "µg"}, {"measurement": "μg (Av) Total Protein (M. persicae)", "setting": "Myzus persicae, US1L; one adult apterous aphid per plant, week 2", "value": 8.50, "unit": "µg"}, {"measurement": "μg (Av) Total Protein (M. persicae)", "setting": "Myzus persicae, US1L; one adult apterous aphid per plant, week 3", "value": 10.01, "unit": "µg"}, {"measurement": "μg (Av) Total Protein (M. persicae)", "setting": "Myzus persicae, US1L; ten adult apterous aphids per plant, week 1", "value": 38.91, "unit": "µg"}, {"measurement": "μg (Av) Total Protein (M. persicae)", "setting": "Myzus persicae, US1L; ten adult apterous aphids per plant, week 2", "value": 33.2, "unit": "µg"}, {"measurement": "μg (Av) Total Protein (M. persicae)", "setting": "Myzus persicae, US1L; ten adult apterous aphids per plant, week 3", "value": 33.5, "unit": "µg"}, {"measurement": "effect of addition of PBO to microencapsulated cis-jasmone (in words)", "setting": "B. tabaci; B. tabaci on cotton", "value": "potentiates the effect of this new microencapsulated cis-jasmone"}, {"measurement": "Protein WF (Av)", "setting": "B. tabaci; week 1", "value": 0.167, "unit": "µg"}, {"measurement": "Protein WF (Av)", "setting": "B. tabaci; week 2", "value": 0.16, "unit": "µg"}, {"measurement": "Protein WF (Av)", "setting": "B. tabaci; week 3", "value": 0.17, "unit": "µg"}, {"measurement": "effect of adding PBO to the cis-jasmone treatment (in words)", "setting": "Bemisia tabaci, GUA MIX; B. tabaci on tomato, bioassay", "value": "clear and highly significant (p<0.001) synergistic effect"}, {"measurement": "Av. Total Insect Protein μg", "setting": "Bemisia tabaci, GUA MIX; Bioassay, Bemisia tabaci (GUA MIX), average of weeks 1 to 3", "value": 0.419, "unit": "µg"}, {"measurement": "μg (Av) Total Protein (B. tabaci pupae)", "setting": "Bemisia tabaci, GUA MIX; week 1", "value": 0.28, "unit": "µg"}, {"measurement": "μg (Av) Total Protein (B. tabaci pupae)", "setting": "Bemisia tabaci, GUA MIX; week 2", "value": 0.28, "unit": "µg"}, {"measurement": "μg (Av) Total Protein (B. tabaci pupae)", "setting": "Bemisia tabaci, GUA MIX; week 3", "value": 0.3, "unit": "µg"}, {"measurement": "Protein WF (Av)", "setting": "whitefly (B. tabaci); cotton plants, ~16 days, week 1", "value": 0.14, "unit": "µg"}, {"measurement": "Protein WF (Av)", "setting": "whitefly (B. tabaci); cotton plants, ~16 days, week 2", "value": 0.14, "unit": "µg"}, {"measurement": "Protein WF (Av)", "setting": "whitefly (B. tabaci); cotton plants, ~16 days, week 3", "value": 0.15, "unit": "µg"}, {"measurement": "Protein WF (Av)", "setting": "whitefly (B. tabaci); tomato plants, week 1", "value": 0.23, "unit": "µg"}, {"measurement": "Protein WF (Av)", "setting": "whitefly (B. tabaci); tomato plants, week 2", "value": 0.33, "unit": "µg"}, {"measurement": "Protein WF (Av)", "setting": "whitefly (B. tabaci); tomato plants, week 3", "value": 0.32, "unit": "µg"}, {"measurement": "optimal concentration of PBO for esterase inhibition", "setting": "esterase", "value": 1000, "unit": "ppm"}]}
